In ChEMBL document CHEMBL4813971, “Development of novel benzofuran-based SLC-0111 analogs as selective cancer-associated carbonic anhydrase isoform IX inhibitors” (Eur J Med Chem, 2021) one finds Ki and IC50 data, which are given here for 20 compounds.

For test [1], the target named is T1, Carbonic anhydrase 9 (Homo sapiens, UniProt Q16790). Nature of the test: Inhibition of human CA9 by stopped- flow CO2 hydration assay.
The target in test [2] is Carbonic anhydrase 1 (Homo sapiens, UniProt P00915). Briefly: Inhibition of human CA1 by stopped- flow CO2 hydration assay.
Sequence of Carbonic anhydrase 1 (P00915 whole entry): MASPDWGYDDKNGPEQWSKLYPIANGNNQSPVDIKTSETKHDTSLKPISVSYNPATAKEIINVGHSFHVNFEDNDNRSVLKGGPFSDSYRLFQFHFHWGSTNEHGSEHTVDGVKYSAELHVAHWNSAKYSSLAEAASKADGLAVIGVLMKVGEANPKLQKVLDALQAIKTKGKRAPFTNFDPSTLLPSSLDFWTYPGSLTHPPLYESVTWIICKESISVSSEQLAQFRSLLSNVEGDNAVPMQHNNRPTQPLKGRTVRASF
Test [3] deals with MCF7. Briefly: Antiproliferative activity against human MCF7 cells incubated for 2 days by MTT assay. The conditions noted are these: MCF7, 48 h. (Formazan colour is commonly taken as a measure of viable cells.)
For test [4], the system named is MDA-MB-231. Nature of the test: Antiproliferative activity against human MDA-MB-231 cells incubated for 2 days by MTT assay. The note with it: MDA-MB-231, 48 h.
Test [5] addresses T1, Carbonic anhydrase 9. Briefly: Inhibition of human CA9 preincubated for 15 mins by phenol red dye based stopped flow CO2 hydration assay.

For the compound `Cc1noc(NS(=O)(=O)c2ccc(NC(=O)Nc3cc4cc(Br)ccc4o3)cc2)c1C`, the Ki was 2300 nM in test [1] and above 100 µM in test [2].
In turn, `Cc1c(NC(=O)Nc2ccccc2S(N)(=O)=O)oc2ccccc12` came in with an inhibition constant (Ki) in test [1] of 68.2 nM.
On to `Cc1noc(NS(=O)(=O)c2ccc(NC(=O)Nc3oc4ccccc4c3C)cc2)c1C`, for which the values for the inhibitory constant (Ki) in test [1] and in test [2] were 560 nM and above 100 µM, respectively.
Compound `NS(=O)(=O)c1ccccc1NC(=O)Nc1cc2cc(Br)ccc2o1` yielded an inhibitory constant (Ki) in test [1] of 35.8 nM.
Regarding `Cc1c(NC(=O)Nc2cccc(S(N)(=O)=O)c2)oc2ccccc12`, affinity in test [1] was put at a Ki of 25.3 nM.
The same measure, in the same setting: under `Cc1c(NC(=O)Nc2ccc(S(N)(=O)=O)cc2)oc2ccccc12` stands 10.4 nM; under `NS(=O)(=O)c1cc(S(N)(=O)=O)c(NC(=O)Nc2cc3cc(Br)ccc3o2)cc1Cl`, 22.8 nM.
For the compound `Cc1ccc(NC(=O)Nc2oc3ccccc3c2C)cc1S(N)(=O)=O`, the Ki in test [1] was found to be 8.4 nM. The IC50 in test [3] was determined as 6.45 µM; in test [4], 6.27 µM.
The corresponding values for `Cc1ccc(NC(=O)Nc2cc3cc(Br)ccc3o2)cc1S(N)(=O)=O` are 5.5 nM, 13.8 µM and 14.2 µM.
`Cc1c(NC(=O)Nc2cc(Cl)c(S(N)(=O)=O)cc2S(N)(=O)=O)oc2ccccc12` had a Ki in test [1] of 53.9 nM.
Consider `Cc1c(NC(=O)NCCc2ccc(S(N)(=O)=O)cc2)oc2ccccc12`, for which the affinity in test [1], expressed as Ki, was 7.6 nM.
The compound `Cc1ccc(S(=O)(=O)C/C(=N\Nc2ccc(S(N)(=O)=O)cc2)c2cc3cc(Br)ccc3o2)cc1` displayed an inhibition constant (Ki) in test [5] of 10 nM.
Take `NS(=O)(=O)c1ccc(C(=O)NNC(=O)Nc2cc3cc(Br)ccc3o2)cc1`: in test [1], the inhibitory constant (Ki) came out at 1.8 nM.
In test [1], `Cc1c(NC(=O)Nc2ccc(S(=O)(=O)Nc3nccs3)cc2)oc2ccccc12` displayed an inhibition constant Ki of 650 nM.
Same read-out and setting: under `NS(=O)(=O)c1ccc(NC(=O)Nc2cc3cc(Br)ccc3o2)cc1` stands 7.1 nM.
In the case of `Cc1c(NC(=O)Oc2ccc(S(N)(=O)=O)cc2)oc2ccccc12`, the affinity in test [1] corresponds to a Ki of 34.5 nM.
Same read-out and setting: under `NS(=O)(=O)c1cccc(NC(=O)Nc2cc3cc(Br)ccc3o2)c1` stands 20.2 nM.
Turning to `C/C(=N\Nc1ccc(S(N)(=O)=O)cc1)c1cc2cc(Br)ccc2o1`, the Ki in test [5] is 27.7 nM.
Regarding `Cc1c(NC(=O)NNC(=O)c2ccc(S(N)(=O)=O)cc2)oc2ccccc12`, the affinity in test [1] corresponds to a Ki of 12.6 nM.
Regarding `O=C(Nc1ccc(S(=O)(=O)Nc2nccs2)cc1)Nc1cc2cc(Br)ccc2o1`, the Ki in test [1] is 930 nM; in test [2], above 100 µM.

Usually Ki stands for a dissociation constant, usually derived from enzyme kinetics or from competition with a known ligand. As usually defined, the IC50 is the midpoint of a concentration-inhibition curve. Higher therefore signals weaker potency.
